The target in one assay is T1, Squalene synthase (Rattus norvegicus, UniProt Q02769).
T1 construct: rat liver microsomal protein; from tissue; host or cells: rat liver microsomes
T1 sequence (Q02769 1-416): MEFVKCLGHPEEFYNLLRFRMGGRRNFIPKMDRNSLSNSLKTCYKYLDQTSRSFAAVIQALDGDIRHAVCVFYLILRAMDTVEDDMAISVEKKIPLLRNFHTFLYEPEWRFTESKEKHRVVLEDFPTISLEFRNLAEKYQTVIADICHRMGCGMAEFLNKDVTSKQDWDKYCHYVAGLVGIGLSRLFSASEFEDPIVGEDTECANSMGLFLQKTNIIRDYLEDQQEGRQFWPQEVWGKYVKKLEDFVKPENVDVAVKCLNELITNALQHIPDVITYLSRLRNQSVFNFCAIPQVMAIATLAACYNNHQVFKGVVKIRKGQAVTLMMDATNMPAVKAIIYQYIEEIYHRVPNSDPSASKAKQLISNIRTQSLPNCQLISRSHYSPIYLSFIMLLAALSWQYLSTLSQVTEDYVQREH
Briefly: Inhibition of squalene synthase (formation of squalene from tritiated farnesyl pyrophosphate, rat liver microsomes). It counts as biochemical. To be noted: rat liver microsomal protein; 20 μM 1-[3H]-farnesyl pyrophosphate; 15 minutes; 37° C.; read-out: IC50 (concentration which results in a 50% inhibition of squalene production). As for the experimental part:
(a) Inhibition of Squalene synthase
In this test, the ability of a compound to prevent the formation of squalene from a radioactive substrate (tritiated farnesyl pyrophosphate) is assessed.
The test compound is incubated at a concentration of 25 micromolar in 200 μl of a buffered solution containing potassium phosphate (50 mM), MgCl2 (4.95 mM), KF (9.9 mM), NADPH (0.9 mM) and rat liver microsomal protein (20 μg). Rat liver microsomes are prepared by the method described in published European Patent Application No. 324,421 and stored in liquid nitrogen prior to assay. Assay vials are kept at 37° C. throughout the incubation.
The reaction is started with the addition of the substrate (1-[^3 H]-farnesyl pyrophosphate), final concentration 20 μM, and stopped after 15 minutes reaction time with the addition of 50 μl of 4% KOH. The reaction products are separated from unreacted substrate after application to a C-18 octadecyl 1ccBond column (Analytichem Int product No. 617101). An aqueous fraction is eluted with 250 μl of 0.1M KOH. Squalene is then eluted with 1.0 ml 10% ethyl acetate in hexane and radioactivity determined. The difference in radioactivity in the presence and absence of the test compound is used to determine the level of inhibition. […] The IC50 can then be determined from a plot of percentage inhibition against concentration of test compound.

The test system of assay [1] is de novo hepatic cholesterol synthesis. The experiment in a line: Acute rat cholesterol synthesis assay (de novo hepatic cholesterol synthesis from 14C-acetate). It counts as in vivo. To be noted: female rats, oral gavage, ip or iv (route not given), 14C-acetate ip 1 hour after dosing. Here is the method: (b) Acute rat cholesterol synthesis assay.
This is an acute in vivo test in the rat to measure de novo hepatic cholesterol synthesis from exogenously administered ^14 C-acetate.
Female rats (35-55 g) are housed in reverse lighting conditions (red light from 0200h-1400h) for a period of about 2 weeks prior to test. Animals are allowed free access to chow and drinking water throughout this period. At test, animals should weigh 125-150 g.
Test compounds may be administered by oral gavage, dissolved or suspended in 0.5% polysorbate, or by ip or iv dosing. Control animals receive vehicle alone. After 1 hour the rats are injected ip with 25 μCi [2-^14 C]-acetate (NEN DUPONT. specific activity, 45-60 mCi/mmol NEC-085H, or AMERSHAM specific activity, 50-60 mCi/mmol CFA 14) in a volume of 0.25 ml saline (100 μCi/ml). After a further hour, rats are terminally anaesthetised with halothane and a blood sample obtained from the abdominal vena cava.
1 ml of plasma is lyophilised and then saponified in 2 ml ethanolic KOH (1 part 33% KOH, 9 parts ethanol) at 75° C. for 2 hours. After addition of an equal quantity of water, non-saponifiable lipids are extracted with two 5 ml volumes of hexane. The hexane extracts are evaporated to dryness and the residues dissolved in ethanol to determine cholesterol specific radioactivity. EC50 values can be determined in the standard way.

With `c1ccc(-c2ccc(CNC3CN4CCC3CC4)cc2)cc1` (centres unmarked) [Example 5, 3-[(biphenyl-4-ylmethyl)amino]quinuclidine], the IC50 on Squalene synthase is 140 nM. As to `Oc1ccc(-c2ccc(OCC3(O)CN4CCC3CC4)cc2)cc1` (centres unmarked) [Example 17, 3-(4'-hydroxybiphenyl-4-yloxymethyl)quinuclidin-3-ol], the ED50 (in general, the dose at which the effect has come halfway, by size or by number of responders) in assay [1] was determined as 11 mg/kg.
